Entries after “also recorded” stand apart in the source; their conditions may differ.
Assays:
KB cells = assay: Intracellular uptake by fluorescence microscopy; format: cell-based; settings: 1 mM (1000 μM) free EDTA with 5 μM PS
Protocol: Fluorescence microscopy method was firstly used to track particles' intracellular uptake on KB cells that cultured in RPMI-1640 media with 10% FBS. Briefly, 5×10^4 cells/well were seeded in eight-well chamber slides 24 h prior to incubation. Cells were incubated with NPS and PS at porphyrin concentration of 1 μM for 4 h at 37° C., rinsed with PBS for 3 times and then re-culture in fresh media. Olympus FV1000 laser fluorescence scanning microscopy (Olympus, Tokyo, Japan) was conducted to monitor the porphyrin fluorescence change of the cells with time (immediately and at 3 h and 18 h after removing the incubation medium). The fluorescence microscopy method was also used to examine eNPS uptake in KB epithelium cells versus normal fibroblast cells (NFB)

[1] = doses of 1000 mg/kg; cited from earlier work

Row | Compound | Effect of co-incubated free EDTA on PS uptake (KB cells) | Acute toxicity [1]
1 | O=C(O)CN(CCN(CC(=O)O)CC(=O)O)CC(=O)O [free EDTA, Ethylenediaminetetraacetic acid] | negligible enhancement; also recorded: negligible effect | –
2 | pyropheophorbide-lipid [porphyrin-lipid] | – | minimal acute toxicities

From patent publication US20240307308A1, “PORPHYRIN NANOVESICLE WITH FATTY ACID CONJUGATE” (priority 2021, published 2024)
